Data: a melting point compilation (Tetko et al.; mined from patent text by program, amines drawn as free bases though some values may be those of a salt)

SMILES	melting point
O=CC(=Cc1ccc(OC(=O)c2ccc(Br)cc2)cc1)C(C=O)=Cc1ccc(OC(=O)c2ccc(Br)cc2)cc1	223 to 225 °C
c1ccc2c(c1)Sc1ccccc1N2c1ccc(-n2ccnc2-c2nccn2-c2ccc(N3c4ccccc4Sc4ccccc43)cc2)cc1	227 to 232 °C
Cc1ccc(C23CCN(C)CC2O3)cc1 (stereo not drawn)	46 to 50 °C
CCOC(=O)c1cc2cccc(OCC(O)CCl)c2o1 (stereo not drawn)	95 to 97 °C
O=c1oc(Nc2ccccc2F)nc2ccccc12	152 to 155 °C
CNc1cncc(C(F)(F)F)c1	69 to 70 °C
OCc1cc(Br)cnc1Cl	86.7 to 87.5 °C
Cc1cc(N)c([N+](=O)[O-])cc1OC(F)F	73 to 74 °C
CN(C)c1nc2cc(Br)ccn2n1	133 to 134 °C
COC(=O)c1scc(-c2ccccc2)c1-c1ccc(S(=O)O)c(F)c1	133 °C
NP(N)(=O)NC(=O)c1cccc([N+](=O)[O-])c1	168 to 172 °C
CC(=O)c1ccc(S(=O)(=O)NCCCn2ccnc2)cc1	142 to 144 °C
C#CC(=O)c1cc(C(C)(C)C)c(O)c(C(C)(C)C)c1	100 to 101 °C
CC(=O)Nc1ccc(-c2ccc3nc(-c4cccnc4N)n(-c4ccc(CNC(=O)c5ccccc5)cc4)c3n2)cc1	299 to 300 °C
NCc1ccc(CN2CCN(c3ccccc3)CC2)cc1	68 to 70 °C
O=C1COCc2cc(-c3ccccc3)ccc21	127 to 128 °C
CC(C)COc1cc(C(=O)O)cc(N)c1C(=O)c1ccccc1	192 to 196 °C
COc1ccc(-c2[nH]c(-c3ccncc3)c(C)c2C(C)=O)cc1	185 to 186 °C
CC(=O)Oc1cc2c(cc1F)C1(OC(=O)c3c1ccc(N)c3N)c1cc(F)c(OC(C)=O)cc1O2	135 °C
CC1(C)CCc2cc(S(=O)(=O)n3c(CCCC(=O)O)cc4cc(Cl)ccc43)ccc2O1	166 to 169 °C
COCC1CN(c2ccc(C3CC4C=CC3C4)cc2)C(=O)O1 (racemic)	46 to 48 °C
CCCCCCCOC(=O)Oc1ccc(-c2ccc(C#N)cc2)cc1	50.2 to 50.5 °C
CC(C)(C)C(=O)Cn1ncc(-c2ccc(S(C)(=O)=O)cc2)c(-c2ccc(F)cc2)c1=O	168 to 170 °C
Cc1[nH]c2cc3c(cc2c1-c1ccccc1)C(C)(C)C=N3	233 to 235 °C

SMILES	melting point
COc1cc([C@H]2CS[C@@H](c3cc(OC)c(OC)c([N+](=O)[O-])c3)S2)cc(OC)c1OC (relative stereo)	133 to 134 °C
CC(C(=O)N(C)O)c1ccc(-c2ccccc2)c(F)c1 (stereo not drawn)	125 to 126 °C
CC(=O)Nc1nc(N)nc(-c2ccc(-c3ccccc3)cc2)n1	> 260 °C
CN(OCC(=O)O)C(=S)NC(c1ccccc1)c1ccccc1	160 to 162 °C
COc1ccc(CNC(=O)c2cccnc2N)cc1	165 to 166 °C
Cc1c(-c2ccccc2)oc2c(C(=O)NCCCN3CCC(C(=O)c4ccc(F)cc4)CC3)cccc2c1=O	181 to 183 °C
O=C(O)c1cc2cc(Cl)ccc2nc1NC1(C(=O)O)CCc2ccccc21 (stereo not drawn)	141 to 144 °C
O=[N+]([O-])c1cccc2[nH]c3c(c12)CCCCCC3	189 to 191 °C
CC(=O)Nc1cc(O)c(C(=O)CCCCl)cc1Cl	103 to 106 °C
O=C1Nc2ccc(I)cc2C1=NNC(=O)c1cccc(Oc2ccccc2)c1	283 °C
COc1ccc(C2(c3cccc(C(Cc4ccccc4)Cc4ccccc4)n3)OCCCO2)cc1OC	124 °C
COCCc1nc2c(N)nc3cc(OCc4ccccc4)ccc3c2n1CCCCNS(C)(=O)=O	144 to 148 °C
CCN1C=C(C(=O)O)C(=O)CC1c1cccnc1 (stereo not drawn)	197 to 199 °C
CC1(C)CC(NC(=O)c2ccccc2)CC(C)(C)N1CC#N	182 °C
CC(C(N)=O)c1ccc2c(c1Cl)C(=O)Cc1ccccc1S2 (stereo not drawn)	180 to 181 °C
CNc1cc(C)cc([N+](=O)[O-])c1N	113 °C
OCc1ccc2ccccc2c1OCc1ccccc1	85 to 87 °C
COc1nccc(C)c1NC(=O)OC(C)(C)C	93 to 95 °C
CC(C)(C(=O)O)c1ccc(CCNS(=O)(=O)c2ccccc2)cc1	86 to 88 °C
ON=Cc1ccc(OCc2coc(-c3ccc(C(F)(F)F)cc3)n2)cc1	155 to 160 °C
COc1cc2oc(=O)c(CCN3CCN(c4ccccc4OC)CC3)c(C)c2cc1O	235 to 237 °C
COc1c(C)cc(C(=O)c2cc(-c3ccc(NC(C)=O)cc3)c(N3CCOCC3)s2)nc1C	145 °C
COc1cc2[nH]c3c(OC)c(OC)ccc3c2cc1OC	170 to 171 °C
CCCNc1ccc(C=O)cc1[N+](=O)[O-]	73.6 °C
